The target in assay [1] is T1, vanilloid receptor (VR1) (Homo sapiens, UniProt Q8NER1).
T1 construct: expressed in transfected cells; host or cells: CHO K1 cells (ECACC), stably transfected
In words: FLIPR Ca2+ influx assay on CHO K1 cells transfected with the VR1 gene (pharmacological method II). The assay is classed as cell-based. As to conditions: table 4; capsaicin; read-out: Ki (human) Cap. The source says: In this FLIPR assay, the influx of Ca^2+ is quantified with the assistance of a Ca^2+-sensitive dye (type Fluo-4, Molecular Probes Europe BV, Leiden, Netherlands) in a Fluorescent Imaging Plate Reader (FLIPR, Molecular Devices, Sunnyvale, USA) as described below.
II. Functional Investigations on the Vanilloid Receptor (VR1)
The agonistic or antagonistic action of the substances to be investigated on the vanilloid receptor (VR1) may also be determined with the following assay. According to this assay, the influx of Ca^2+ through the channel is quantified with the assistance of a Ca^2+-sensitive dye (type Fluo-4, Molecular Probes Europe BV, Leiden, Netherlands) in a Fluorescent Imaging Plate Reader (FLIPR, Molecular Devices, Sunnyvale, USA).
Chinese hamster ovary cells (CHO K1 cells, European Collection of Cell Cultures (ECACC), Great Britain) are stably transfected with the VR1 gene. For functional investigations, these cells are plated out onto poly-D-lysine-coated, black 96 well plates with a clear bottom (BD Biosciences, Heidelberg, Germany) at a density of 25,000 cells/well. The cells are incubated overnight at 37° C. and 5% CO2 in a culture medium (Ham's Nutrient Mixture F12, 10 vol. % FCS (foetal calf serum), 18 μg/mL L-proline). On the following day, the cells are incubated with Fluo-4 (Fluo-4 2 μM, Pluronic F127 0.01 vol. %, Molecular Probes in HBSS (Hank's buffered saline solution), Gibco Invitrogen GmbH, Karlsruhe, Germany) for 30 minutes at 37° C. The plates are then washed 3 times with HBSS buffer and, after a further 15 minutes' incubation at room temperature, used for […] measurement in the FLIPR. […] Quantification proceeds by measuring the highest fluorescence intensity (FC, fluorescence counts) over time.
The FLIPR protocol comprises 2 additions of substance. The substances to be tested (10 μM) are firstly pipetted onto the cells and Ca^2+ influx is compared with the control (capsaicin 10 μM) (% activation relative to the Ca^2+ signal after addition of 10 μM of capsaicin). After 5 minutes' incubation, 100 nM of capsaicin are added and the influx of Ca^2+ is again determined.
The percentage inhibition in comparison with the maximum achievable inhibition with 10 μM capsaicin is calculated.

The target in assay [2] is VR1/TRPV1 receptor (Homo sapiens, UniProt Q8NER1). Description: IC50 (human) after pH stimulus. It counts as cell-based. As to conditions: for inhibition at 5 µM / inhibition at 10 µM / inhibition at 0.1 µM / inhibition at 1 µM: read-out: inhibition in percent, IC50 (human) after pH stimulus; for IC50: table 4.
Sequence of VR1/TRPV1 receptor (Q8NER1 whole entry): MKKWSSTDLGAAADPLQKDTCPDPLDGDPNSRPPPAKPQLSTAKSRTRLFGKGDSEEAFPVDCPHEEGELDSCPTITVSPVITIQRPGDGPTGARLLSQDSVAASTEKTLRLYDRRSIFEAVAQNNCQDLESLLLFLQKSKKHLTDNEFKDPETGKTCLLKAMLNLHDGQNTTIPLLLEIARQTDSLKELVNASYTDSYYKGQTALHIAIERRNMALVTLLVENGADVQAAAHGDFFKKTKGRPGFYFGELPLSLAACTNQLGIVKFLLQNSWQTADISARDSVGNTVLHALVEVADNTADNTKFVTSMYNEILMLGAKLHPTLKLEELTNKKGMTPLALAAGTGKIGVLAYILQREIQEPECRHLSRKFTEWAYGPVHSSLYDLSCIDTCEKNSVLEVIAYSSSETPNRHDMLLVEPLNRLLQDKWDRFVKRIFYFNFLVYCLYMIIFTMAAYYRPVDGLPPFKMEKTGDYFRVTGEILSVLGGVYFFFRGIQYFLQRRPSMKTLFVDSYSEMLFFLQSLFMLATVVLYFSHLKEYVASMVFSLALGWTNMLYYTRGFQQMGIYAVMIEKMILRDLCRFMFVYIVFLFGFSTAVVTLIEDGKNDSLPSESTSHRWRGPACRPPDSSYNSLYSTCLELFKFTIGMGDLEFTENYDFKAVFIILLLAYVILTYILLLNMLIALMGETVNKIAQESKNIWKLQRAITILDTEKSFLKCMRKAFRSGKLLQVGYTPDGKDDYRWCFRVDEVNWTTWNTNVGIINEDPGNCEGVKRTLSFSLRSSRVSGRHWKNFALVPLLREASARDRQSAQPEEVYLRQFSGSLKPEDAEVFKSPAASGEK

T1 sequence (Q8NER1 whole entry): as above

As for `CC(C)CC(CC(C)C)Oc1nc(C(F)(F)F)ccc1CNC(=O)C(C)c1ccc(NS(C)(=O)=O)c(F)c1` (stereo not shown) [Example 337, 2-(3-fluoro-4-methylsulfonamido-phenyl)-N-[2-(1-isobutyl-3-methyl-butoxy)-6-trifluoromethyl-pyridin-3-ylmethyl]-propionamide], the Ki in assay [1] turned out to be 0.7 nM. Further, in assay [2], the inhibition at 5 µM is 6% and the inhibition at 10 µM came out at 30%.

For the molecule `CC(C)=Cc1nc(C(F)(F)F)ccc1CNC(=O)C(C)c1ccc(NS(C)(=O)=O)c(F)c1` (stereo not shown) [Example 273, 2-(3-fluoro-4-methylsulfonamido-phenyl)-N-[2-(2-methyl-propenyl)-6-trifluoromethyl-pyridin-3-ylmethyl]-propionamide], the inhibitory constant (Ki) in assay [1] amounted to 11.5 nM. This molecule yielded an IC50 in assay [2] of 1610 nM.

Take `C/C=C\COc1nc(C(F)(F)F)ccc1CNC(=O)C(C)c1ccc(NS(C)(=O)=O)c(F)c1` (stereo not shown) [Example 298, N-(2-but-2-enyloxy-6-trifluoromethyl-pyridin-3-ylmethyl)-2-(3-fluoro-4-methylsulfonamido-phenyl)-propionamide]: the Ki in assay [1] is 1.6 nM. In assay [2], this molecule registered an IC50 of 183 nM.

`CC(=O)C1(c2ccccc2)CCN(c2nc(C(F)(F)F)ccc2CNC(=O)C(C)c2ccc(NS(C)(=O)=O)c(F)c2)CC1` (stereo not shown) [Example 304, N-(4-acetyl-4-phenyl-6′-trifluoromethyl-3,4,5,6-tetrahydro-2H-[1,2′]bipyridinyl-3′-ylmethyl)-2-(3-fluoro-4-methylsulfonamido-phenyl)-propionamide]: the Ki in assay [1] is 0.71 nM. Further, it took 35.4 nM to reach half-maximal inhibition in assay [2] (IC50).

For `CC(C(=O)NCc1ccc(C(F)(F)F)cc1N1CCN(C2CCCCC2)CC1)c1ccc(NS(C)(=O)=O)c(F)c1` (stereo not shown) [Example 319, N-[2-(4-cyclohexyl-piperazin-1-yl)-4-trifluoromethyl-benzyl]-2-(3-fluoro-4-methylsulfonamido-phenyl)-propionamide], the Ki in assay [1] is 13.8 nM. In assay [2], the inhibition at 5 µM came out at 38% and the inhibition at 10 µM is 54%.

Regarding `Cc1cc(-c2nc(C(F)(F)F)ccc2CNC(=O)C(C)c2ccc(NS(C)(=O)=O)c(F)c2)ccc1F` (stereo not shown) [Example 278, 2-(3-fluoro-4-methylsulfonamido-phenyl)-N-[2-(4-fluoro-3-methyl-phenyl)-6-trifluoromethyl-pyridin-3-ylmethyl]-propionamide], in assay [1], the Ki was 0.4 nM. In assay [2], this molecule came in with an IC50 of 76 nM.

Consider `CC(C)COc1nc(C(F)(F)F)ccc1CNC(=O)[C@H](C)c1ccc(NS(C)(=O)=O)c(F)c1` [Example 97, (R)-2-(3-fluoro-4-methylsulfonamido-phenyl)-N-(2-isobutoxy-6-trifluoromethyl-pyridin-3-ylmethyl)-propionamide], for which the Ki in assay [1] worked out at 44.5 nM. Also, the IC50 in assay [2] came out at 2150 nM.

As to `CCC(=O)N(c1ccccc1)C1CCN(c2nc(C(F)(F)F)ccc2CNC(=O)C(C)c2ccc(NS(C)(=O)=O)c(F)c2)CC1` (stereo not shown) [Example 307, 2-(3-fluoro-4-methylsulfonamido-phenyl)-N-[4-(phenyl-propionyl-amino)-6′-trifluoromethyl-3,4,5,6-tetrahydro-2H-[1,2′]bipyridinyl-3′-ylmethyl]-propionamide], the Ki in assay [1] was determined as 5 nM. Half-maximal inhibition in assay [2] (IC50) required 456 nM.

As to `Cc1ccc(Oc2nc(C(F)(F)F)ccc2CNC(=O)C(C)c2ccc(NS(C)(=O)=O)c(F)c2)cc1` (stereo not shown) [Example 345, 2-(3-fluoro-4-methylsulfonamido-phenyl)-N-(2-p-tolyloxy-6-trifluoromethyl-pyridin-3-ylmethyl)-propionamide], the Ki in assay [1] came out at 2.8 nM. In assay [2], the inhibition at 0.1 µM is 3% and the inhibition at 5 µM was determined as 45%. In addition, the inhibition at 1 µM in assay [2] (@ 1 μM, ne = no effect) worked out at 38%.

For `CC(C(=O)NCc1ccc(C(F)(F)F)nc1C1=CCCCC1)c1ccc(NS(C)(=O)=O)c(F)c1` (stereo not shown) [Example 334, N-(2-cyclohex-1-enyl-6-trifluoromethyl-pyridin-3-ylmethyl)-2-(3-fluoro-4-methylsulfonamido-phenyl)-propionamide], in assay [1], the Ki turned out to be 0.7 nM. In addition, in assay [2], the IC50 was 99 nM.

Turning to `CC(C(=O)NCc1ccc(C(F)(F)F)nc1/C=C/C1CCCCC1)c1ccc(NS(C)(=O)=O)c(F)c1` (stereo not shown) [Example 346, N-[2-(2-cyclohexyl-vinyl)-6-trifluoromethyl-pyridin-3-ylmethyl]-2-(3-fluoro-4-methylsulfonamido-phenyl)-propionamide], the Ki in assay [1] came to 0.7 nM. The same molecule registered an IC50 in assay [2] of 66 nM.

On to `CC(C)COc1nc(C(C)(C)C)ccc1CNC(=O)C(C)c1ccc(NS(C)(=O)=O)c(F)c1` (stereo not shown) [Example 353, N-(6-tert-butyl-2-isobutoxy-pyridin-3-ylmethyl)-2-(3-fluoro-4-methylsulfonamido-phenyl)-propionamide], for which, in assay [1], the Ki was 0.6 nM. Besides, the inhibition at 0.1 µM in assay [2] worked out at 28%. Further, in assay [2] (@ 1 μM, ne = no effect), the inhibition at 1 µM was 25%.

With `CC(C(=O)NCc1ccc(C(C)(C)C)nc1N1CCCCCC1)c1ccc(NS(C)(=O)=O)c(F)c1` (stereo not shown) [Example 296, N-(2-azepan-1-yl-6-tert-butyl-pyridin-3-ylmethyl)-2-(3-fluoro-4-methansulfonylamino-phenyl)-propionamide], in assay [1], the Ki was found to be 0.9 nM. Moreover, in assay [2], the midpoint of inhibition, the IC50, lay at 154 nM.

As for `COCCCOc1nc(C(F)(F)F)ccc1CNC(=O)C(C)c1ccc(NS(C)(=O)=O)c(F)c1` (stereo not shown) [Example 355, 2-(3-fluoro-4-methylsulfonamido-phenyl)-N-[2-(3-methoxy-propoxy)-6-trifluoromethyl-pyridin-3-ylmethyl]-propionamide], the Ki in assay [1] was 15.3 nM. The molecule also yielded an IC50 in assay [2] of 2200 nM.

As to `Cc1cc(C(F)(F)F)nc(N2CCC(C)CC2)c1CNC(=O)C(C)c1ccc(NS(C)(=O)=O)c(F)c1` (stereo not shown) [Example 318, N-(4,4′-dimethyl-6′-trifluoromethyl-3,4,5,6-tetrahydro-2H-[1,2′]bipyridinyl-3′-ylmethyl)-2-(3-fluoro-4-methylsulfonamido-phenyl)-propionamide], the Ki in assay [1] worked out at 17.5 nM. Moreover, in assay [2], the inhibition at 5 µM was determined as 4% and the inhibition at 10 µM was 32%.

With `COc1cc(COc2nc(C(F)(F)F)ccc2CNC(=O)C(C)c2ccc(NS(C)(=O)=O)c(F)c2)cc(OC)c1` (stereo not shown) [Example 363, N-[2-(3,5-dimethoxy-benzyloxy)-6-trifluoromethyl-pyridin-3-ylmethyl]-2-(3-fluoro-4-methylsulfonamido-phenyl)-propionamide], the Ki in assay [1] turned out to be 0.7 nM. For the same molecule, half-maximal inhibition in assay [2] (IC50) was put at 76 nM.

Regarding `CCCN(CCC)c1nc(C(F)(F)F)ccc1CNC(=O)C(C)c1ccc(NS(C)(=O)=O)c(C)c1` (stereo not shown) [Example 331, N-(2-dipropylamino-6-trifluoromethyl-pyridin-3-ylmethyl)-2-(4-methylsulfonamido-3-methyl-phenyl)-propionamide], the Ki in assay [1] is 0.7 nM. For the same molecule, the inhibition at 10 µM in assay [2] was determined as 31%.

For the molecule `CCCCCCOc1nc(C(F)(F)F)ccc1CNC(=O)C(C)c1ccc(NS(C)(=O)=O)c(F)c1` (stereo not shown) [Example 376, 2-(3-fluoro-4-(methylsulfonamido)phenyl)-N-((2-(hexyloxy)-6-(trifluoromethyl)pyridin-3-yl)methyl)propanamide], the Ki in assay [1] was determined as 0.8 nM. Besides, the IC50 in assay [2] was 20 nM.

Take `CC(C(=O)NCc1ccc(C(F)(F)F)nc1-c1ccc2c(c1)OCO2)c1ccc(NS(C)(=O)=O)c(F)c1` (stereo not shown) [Example 266, N-(2-benzo[1,3]dioxol-5-yl-6-trifluoromethyl-pyridin-3-ylmethyl)-2-(3-fluoro-4-methylsulfonamido-phenyl)-propionamide]: in assay [1], the Ki came out at 3.4 nM. For the same molecule, the “inhibition in percent, IC50 (human) after pH stimulus” value in assay [2] (@ 1 μM, ne = no effect) is “ne @ 1 μM”.

`CCCC(CCC)Oc1nc(C(F)(F)F)ccc1CNC(=O)C(C)c1ccc(NS(C)(=O)=O)c(F)c1` (stereo not shown) [Example 336, 2-(3-fluoro-4-methylsulfonamido-phenyl)-N-[2-(1-propyl-butoxy)-6-trifluoromethyl-pyridin-3-ylmethyl]-propionamide]: the Ki in assay [1] came out at 0.7 nM. In assay [2], the inhibition at 0.1 µM was found to be 35%. For the same molecule, the inhibition at 1 µM in assay [2] (@ 1 μM, ne = no effect) was found to be 50%.

Turning to `CC1CCN(c2nc(C(F)(F)F)ccc2CNC(=S)C(C)c2ccc(NS(C)(=O)=O)c(F)c2)CC1` (stereo not shown) [Example 293, 2-(3-fluoro-4-methylsulfonamido-phenyl)-N-(4-methyl-6′-trifluoromethyl-3,4,5,6-tetrahydro-2H-[1,2′]bipyridinyl-3′-ylmethyl)-thiopropionamide], in assay [1], the Ki amounted to 1.4 nM. The same molecule had an IC50 in assay [2] of 129 nM.

The values are drawn from patent US8710233B2 (Gruenenthal GmbH, priority 2005, dated 2014).
